Legend:
Format in all cases: functional
RXF 393 = assay: Growth inhibition of human RXF393 cells
IGROV-1 = assay: Growth inhibition of human IGROV1 cells
NCI-H522 = assay: Growth inhibition of human NCI-H522 cells
NCI-H322M = assay: Growth inhibition of human NCI-H322M cells
MCF7 = assay: Growth inhibition of human MCF7 cells
UO-31 = assay: Growth inhibition of human UO31 cells
CAKI-1 = assay: Growth inhibition of human Caki1 cells
NCI-H23 = assay: Growth inhibition of human NCI-H23 cells
U-251 = assay: Growth inhibition of human U251 cells
NCI-H460 = assay: Growth inhibition of human NCI-H460 cells
HCT-15 = assay: Growth inhibition of human HCT15 cells
SF-539 = assay: Growth inhibition of human SF539 cells
MOLT-4 = assay: Growth inhibition of human MOLT4 cells
CCRF-CEM = assay: Growth inhibition of human CCRF-CEM cells
MDA-N = assay: Growth inhibition of human MDA-N cells
UACC-257 = assay: Growth inhibition of human UACC257 cells
OVCAR-5 = assay: Growth inhibition of human OVCAR5 cells
Pseudomonas aeruginosa = assay: Antimicrobial activity against Pseudomonas aeruginosa assessed per disk
T47D = assay: Growth inhibition of human T47D cells
TK-10 = assay: Growth inhibition of human TK10 cells
HOP-92 = assay: Growth inhibition of human HOP92 cells
[1] = Growth inhibition of human […] cells
[2] = read-out: LC50 (the source's name)

COc1cn2c(cc1=O)C(=O)c1ccnc(Cc3ccccc3)c1-2 [PTEROCELLIN B]
GI50 (RXF 393): 2400 nM
LC50 (RXF 393): 45.2 µM
TGI (RXF 393): 6.9 µM
GI50 (IGROV-1): 1000 nM
TGI (IGROV-1): 2500 nM
CC50 (IGROV-1; [2]): 6 µM
GI50 (NCI-H522): 1100 nM
TGI (NCI-H522): 2400 nM
CC50 (NCI-H522; [2]): 5.2 µM
GI50 (NCI-H322M): 1100 nM
LC50 (concentration killing 50% of cells) (NCI-H322M): 4.7 µM
TGI (NCI-H322M): 2200 nM
GI50 (MCF7): 1000 nM
TGI (MCF7): 3.3 µM
CC50 (MCF7; [2]): > 100 µM
GI50 (UO-31): 1300 nM
TGI (UO-31): 2800 nM
CC50 (UO-31; [2]): 5.7 µM
GI50 (CAKI-1): 1500 nM
TGI (CAKI-1): 3.3 µM
CC50 (CAKI-1; [2]): 7.4 µM
GI50 (NCI-H23): 100 nM
LC50 (concentration causing 50% net cell kill) (NCI-H23): 700 nM
TGI (NCI-H23): 300 nM
GI50 (U-251): 1000 nM
TGI (U-251): 2200 nM
CC50 (U-251; [2]): 4.7 µM
GI50 (NCI-H460): 200 nM
LC50 (concentration causing 50% cell kill) (NCI-H460): 5.5 µM
TGI (NCI-H460): 800 nM
GI50 (HCT-15): 500 nM
TGI (HCT-15): 1800 nM
CC50 (HCT-15; [2]): 4.9 µM
GI50 (SF-539): 1100 nM
TGI (SF-539): 2700 nM
CC50 (SF-539; [2]): 6.4 µM
GI50 (MOLT-4): 1400 nM
LC50 (concentration killing 50% of cells) (MOLT-4): 5.6 µM
TGI (MOLT-4): 2900 nM
GI50 (CCRF-CEM): 1700 nM
TGI (CCRF-CEM): 5.2 µM
CC50 (CCRF-CEM; [2]): > 100 µM
GI50 (MDA-N): 200 nM
TGI (MDA-N): 300 nM
CC50 (MDA-N; [2]): 600 nM
GI50 (UACC-257): 200 nM
TGI (UACC-257): 700 nM
CC50 (UACC-257; [2]): 2900 nM
GI50 (OVCAR-5): 1200 nM
TGI (OVCAR-5): 2400 nM
CC50 (OVCAR-5; [2]): 4.9 µM
MIC (Pseudomonas aeruginosa): >60 µg
GI50 (T47D): 1300 nM
TGI (T47D): 3.2 µM
CC50 (T47D; [2]): > 100 µM
GI50 (TK-10): 1500 nM
TGI (TK-10): 2900 nM
CC50 (TK-10; [2]): 5.6 µM
GI50 (HOP-92): 1700 nM
TGI (HOP-92): 3.8 µM
CC50 (HOP-92; [2]): 8.8 µM
GI50 [1]: 1500 nM
TGI [1]: 4.9 µM
